Source: patent US20120141788A1, “PROCESS AND DEVICE FOR THE PRECIPITATION OF AN ORGANIC COMPOUND” (Fujifilm Manufacturing Europe B.V., priority 2006, published 2012)

Assays:
[1] = Particle size distribution of the precipitate measured with a Malvern Mastersizer 2000; format: physicochemical; conditions: precipitated particles; for D50 of this batch / D90 of this batch: ethanol/water, Malvern Mastersizer 2000
Description: Preferably, the precipitated organic compound is in particulate form and has a D50 of less than 500 nm, more preferably less than 400 nm, even more preferably of less than 300 nm, and in particular less than 200 nm. The D50 can be measured by techniques known in the art, e.g. laser diffraction according to method ISO 13320-1 using e.g. a Malvern Mastersizer 2000 particle size analyser.
The particle size distribution is wide, including many particles of 10 μm edge length or more. […] The D50 of this batch is 14.59 μm. So 50% of all particles have a volume median size which is smaller than 14.59 μm. The D90 of this batch is 36.22 μm.
Particle size distribution was measured with a Malvern Mastersizer 2000. The D50 of this batch is 9.17 μm. The D90 of this batch is 18.72 μm. (FIG. 8)

[2] = Saturation concentration in ethanol; format: physicochemical; conditions: 325 K

## CC(=O)[C@H]1CC[C@H]2[C@@H]3CC=C4C[C@@H](O)CC[C@]4(C)[C@H]3CC[C@]12C [Comparative Example 1, pregnenolone]
[1]
  particle size distribution (shape, in words): wide
  D50 of this batch: 14.59 μm
  D90 of this batch: 36.22 μm

## CC(=O)[C@H]1CC[C@H]2[C@@H]3CC=C4C[C@@H](O)CC[C@]4(C)[C@H]3CC[C@]12C [Comparative Example 3, pregnenolone]
[1]
  particle size distribution (shape, in words): narrower particle size distribution than Comparative Example 2
  D50 of this batch: 9.17 μm
  D90 of this batch: 18.72 μm

## CC(=O)[C@H]1CC[C@H]2[C@@H]3CC=C4C[C@@H](O)CC[C@]4(C)[C@H]3CC[C@]12C [Inventive Example 1, pregnenolone]
[1]
  particle size distribution (shape, in words): narrow
  D50 of this batch: 9.17 μm
  D90 of this batch: 18.72 μm

## CC(=O)[C@H]1CC[C@H]2[C@@H]3CC=C4C[C@@H](O)CC[C@]4(C)[C@H]3CC[C@]12C [pregnenolone]
[2]
  saturation conc. in EtOH: 34 g/L
